The subject of one data set is human LPL mRNA. As to the kind of experiment: Test for increase in LPL mRNA expression (luciferase assay, HTB-92/p387/p383 cell line). It counts as cell-based. The note with it: 120 h, HTB-92/p387/p383 cells, 5 days; for maximal fold induction: Max. Ind. Value=Lt/Lc, maximum luciferase activity over control; for EC50: concentration that increases LPL mRNA expression over the control by 50%. An excerpt: Pharmacological Test 1 Test for Increase in LPL mRNA Expression
A luciferase assay was employed to simply and quickly detect an increase in human LPL mRNA. The principle of the assay is as follows:
Luciferase emits light when reacted with luciferine (substrate). The expression of LPL mRNA is controlled by 5′-UTR and 3′-UTR (promoter regions) of the LPL gene. By introducing the promoter regions of the LPL gene into a commercially available plasmid (for example, that produced by Clonetics Corp.) to produce a plasmid (reporter plasmid) that stably expresses luciferase in human cells, such a plasmid expresses luciferase only under conditions in which LPL mRNA can increase. Therefore, when the substrate is introduced to the expression system and the amount of luciferase expression (luciferase activity) is quantified as the extent of chemiluminescence, the amount of LPL mRNA expression can be estimated.
The test herein was performed as follows: Using a plasmid for the luciferase assay manufactured by Clontech, wherein human LPL 5′-UTR (Enerback, S., et al., Mol. Cell. Biol. 12 (10) (1992): 4622-4633) and 3′-UTR (Wion, K. L., et al., Science 235 (1987): 4796, 1638-1641) had been inserted, human-derived liposarcoma cell line SW872 (ATCC Accession No. HTB-92) was transformed to prepare an HTB-92/p387/p383 cell line, which stably expresses luciferase.
This HTB-92/p387/p383 cell line was introduced into a 225 cm^2 culture flask furnished with a culture medium and cultured at 37° C. in the absence of CO2 until reaching confluence. Leibovitz's L-15 culture medium (containing 10% FBS, 1% GlutaMaxII, 10 μg/ml streptomycin, 1 μg/ml puromycin, 250 μg/ml hygromycin B) was used as the culture medium. After reaching confluence, the cells were collected, plated on 384-well plates to have 20000 cells/well, and cultured with 50 μl/well of the culture medium under the same conditions as above (37° C., absence of CO2). After 3 days of culturing, the culture medium was replaced by 50 μl/well phenol-red-free DMEM (containing 10% FBS, 1% GlutaMax, 10 U/ml penicillin, 10 μg/ml streptomycin, 1 μg/ml puromycin, 250 μg/ml hygromycin, 1 μM dexamethasone, 0.5 μM IBMX; differentiation medium), and the cells were cultured for 5 more days at 37° C. in the presence of CO2 to differentiate.
Furthermore, the culture medium was replaced by a 50 μl/well medium containing a compound of the invention (compound prepared in an Example) as a test substance wherein the compound had been conditioned with DMSO to a specific concentration selected from 10^−4 M to 3×10^−10M. The cells were cultured for 5 days at 37° C. in the presence of CO2.
After 5 days of culturing, a luciferase substrate solution (manufactured by Promega Corporation) was introduced to each well in an amount of 30 μl/well. The cells were left to stand 10 minutes at room temperature, and luciferase activities were measured by a luminometer (a microplate scintilltion counter; The Wallac MicroBeta Trilux, manufactured by Perkin Elmer, Inc.).
Cells that had been cultured and differentiated in a differentiation medium prepared by adding 0.1% DMSO to the above-mentioned DMEM medium (differentiation medium) not containing phenol red were used as a control (i.e., cultured and differentiated for 5 days and then stimulated for 5 days). The luciferase activity of these control cells were measured as above. The EC50 value (the concentration of test substance that can increase the amount of LPL mRNA expression over the control by 50%, unit: M) was calculated based on the straight line obtained by plotting the results of the tests performed using the test substances at varying concentrations. The maximum induction (Max. Ind. values) was calculated according to the following equation: Max. Ind. Value=Lt/Lc wherein Lt represents the maximum luciferase activity occurred in response to test substance stimulation; and Lc represents the value indicating the luciferase activity of the control.

Structures are written as SMILES.

In general, maximal fold induction refers to the ratio of treated to control signal. A higher maximal fold induction goes with a large rise in signal. By melting point is commonly meant the temperature of the solid-liquid transition. The molecule `COc1cc(-c2cn3ccccc3n2)ccc1OCc1cccc(F)c1` [Example 5] displayed a melting point of 117 to 118 °C. In the data set on human LPL mRNA, the maximal fold induction amounted to 1.6 and the EC50 was determined as 3.6 µM. For the molecule `COc1cc(-c2cnc3ccccn23)ccc1OCc1ccc(Cl)cc1` [Example 109], in the data set with human LPL mRNA, the maximal fold induction came out at 1.5 and the EC50 was 3 µM.

Regarding `COc1cc(-c2cnc3ccccn23)ccc1O[C@H](C)c1ccccc1` [Example 132], in the data set on human LPL mRNA, the maximal fold induction came out at 1.7 and the EC50 came out at 6.2 µM. Regarding `COc1cc(-c2cn3cc(Br)cc(C)c3n2)ccc1OCc1ccc(Cl)cc1` [Example 69], the melting point fell in the range of 155 to 156 °C. `COc1cc(-c2cn3cc(Br)ccc3n2)ccc1OCc1ccc(Cl)cc1` [Example 96] yielded a melting point of 178 to 180 °C. The same measure, in the same setting: in the case of `COc1cc(-c2cn3cccc(C)c3n2)ccc1OCc1ccc(Br)cc1F` [Example 82] it was 122 to 124 °C.

In the case of `CCO[PH](=O)OCc1ccc(C(=O)Nc2ccc(Br)cc2C#N)cc1` (centres unmarked) [ethyl 4-[(4-bromo-2-cyanophenyl)carbamoyl]benzyl phosphonate, reference compound], the maximal fold induction with human LPL mRNA was ~1.2.

As to `COc1cc(-c2cn3cc(C)ccc3n2)ccc1OCc1ccc(Br)cc1F` [Example 83], the melting point fell in the range of 147 to 148 °C. In turn, `COc1cc(-c2cn3cccnc3n2)ccc1OCc1ccccc1` [Example 28, 2-(4-benzyloxy-3-methoxyphenyl)imidazo[1,2-a]pyrimidine] had a melting point of 168 to 169 °C. Take `COc1cc(-c2cn3cc(C)cc(Br)c3n2)ccc1OCc1ccc(Cl)cc1` [Example 64]: the melting point was in the range of 136 to 138 °C. Regarding `Oc1cc(-c2cn3ccccc3n2)ccc1OCc1ccccc1` [Example 59], the melting point was 169 to 171 °C. In turn, `COc1cc(-c2cccc3nccn23)ccc1O` [Example 137] came in with a melting point of 177 to 178 °C. The same measure, in the same setting: in the case of `COc1cc(-c2cn3ccsc3n2)ccc1OCc1ccc([N+](=O)[O-])cc1` [Example 49] it was 189 to 191 °C; in that of `COc1cc(-c2nc3ccccc3[nH]2)ccc1OCc1ccc(Cl)cc1` [Example 77], 204 to 206 °C. The molecule `COc1cc(-c2cn3ccccc3n2)ccc1O.Cl` returned a melting point of 276 to 278 °C. Still for that read-out and setting: in the case of `COc1cc(-c2cn3ccsc3n2)ccc1OCc1ccc(C#N)cc1` [Example 48] it was 179 to 181 °C; in that of `COc1cc(-c2nc3ccccn3c2Cl)ccc1Oc1ccccc1` [Example 115], 108 to 109 °C; in that of `COc1cc(-c2cn3cc(Cl)cc(Cl)c3n2)ccc1OCc1ccc(C#N)cc1` [Example 81], 187 to 189 °C.

`COc1cc(-c2cn3cc(Cl)ccc3n2)ccc1OCc1ccccc1` [Example 18] registered a melting point of 177 to 179 °C. Still for that read-out and setting: in the case of `COc1cc(-c2cn3cccc(C)c3n2)ccc1OCc1ccccc1` [Example 34] it was 99 to 100 °C; in that of `COc1cc(-c2cn3ccccc3n2)ccc1OCc1cc(F)ccc1C(F)(F)F` [Example 8], 125 to 126 °C; in that of `COc1cc(-c2cn3c(C)cccc3n2)ccc1OCc1ccccc1` [Example 33], 130 to 132 °C. As to `COc1cc(-c2cn3cc(C)ccc3n2)ccc1OCc1ccc(C#N)cc1` [Example 57], the melting point lay within 168 to 169 °C. The same measure, in the same setting: in the case of `COc1cc(-c2cn3cc(Br)ccc3n2)ccc1OCc1ccccc1` [Example 66] it was 175 to 176 °C. As for `COc1cc(-c2cn3ccsc3n2)ccc1OCc1ccc(Br)cc1F` [Example 84], the melting point lay within 109 to 111 °C. `COc1cc(-c2cn3ccccc3n2)ccc1OCC1CC1` [Example 71]: the melting point was in the range of 121 to 123 °C.

`COc1cc(-c2cn3ccc(C)cc3n2)ccc1OCc1ccccc1` [Example 16] showed a melting point of 171 to 173 °C. In the case of `Cc1cc(-c2cn3ccccc3n2)ccc1OCc1ccccc1` [Example 39], the melting point fell in the range of 123 to 124 °C. `COc1cc(-c2cn3ccccc3n2)ccc1OCc1ccc(Br)cc1` [Example 31] registered a melting point of 136 to 137 °C.

With `COc1cc(-c2cn3ccccc3n2)ccc1OCc1ccc(Cl)cc1F` [Example 91], the melting point fell in the range of 119 to 120 °C. In turn, `c1ccc(COc2ccc(-c3cn4ccccc4n3)cc2)cc1` [Example 13] yielded a melting point of 171 to 173 °C. On to `COc1cc(-c2cn3ccccc3n2)ccc1OCc1ccc([N+](=O)[O-])cc1` [Example 38], for which the melting point was 197 to 200 °C. `O=C(O)c1cc(-c2cn3ccccc3n2)ccc1OCc1ccccc1` [Example 40] had a melting point of 239 to 240 °C.

As to `COc1cc(-c2nc3ccccn3c2C)ccc1OCc1ccc(Cl)cc1` [Example 26], the melting point was in the range of 114 to 115 °C. In the case of `COc1cc(-c2cn3cc(Cl)cc(Cl)c3n2)ccc1OCc1ccc(Cl)cc1` [Example 80], the melting point lay within 162 to 163 °C. Take `COc1cc(-c2nc3ccccn3c2Cl)ccc1OCc1ccccc1` [Example 2]: the melting point was in the range of 103 to 104 °C.

On to `COc1cc(-c2cn3cc(C)cc(Br)c3n2)ccc1OCc1ccccc1` [Example 63], for which the melting point is 136 to 137 °C. For the molecule `COc1cc(-c2nc3ccccc3[nH]2)ccc1OCc1ccccc1` [Example 76, 2-(4-benzyloxy-3-methoxyphenyl)benzimidazole], the melting point was in the range of 219 to 221 °C. The molecule `COc1cc(-c2cn3ccccc3n2)ccc1OCc1ccc(Cl)c(Cl)c1` [Example 22] came in with a melting point of 138 to 139 °C.

For the molecule `COc1cc(-c2cn3cccc(C)c3n2)ccc1OCc1ccc(C#N)cc1` [Example 74], the melting point was in the range of 144 to 146 °C. Take `Clc1ccc(COc2ccc(-c3cn4ccccc4n3)cc2)cc1` [Example 37]: the melting point was 229 to 231 °C. In turn, `COc1cc(-c2cn3cc(Br)ccc3n2)ccc1OCc1ccc(C#N)cc1` [Example 97] came in with a melting point of 165 to 166 °C. The molecule `COc1cc(-c2cnc3ccccn23)ccc1OCc1ccccc1` [Example 12, 3-(4-benzyloxy-3-methoxyphenyl)imidazo[1,2-a]pyridine] gave a melting point of 129 to 131 °C. The molecule `COc1cc(-c2cn3cc(Br)c(C)c(C)c3n2)ccc1OCc1ccccc1` [Example 100] came in with a melting point of 158 to 160 °C.

With `CCOc1cc(-c2cn3ccccc3n2)ccc1OCc1ccc(Cl)cc1` [Example 68], the melting point is 136 to 137 °C. `COc1cc(-c2cn3ccccc3n2)ccc1OCc1ccc(C(=O)O)cc1` [Example 51] registered a melting point of 245 to 247 °C.

For `COc1cc(-c2cnc3ccccn23)ccc1OCc1ccc(Cl)c(Cl)c1` [Example 117], in the data set on human LPL mRNA, the maximal fold induction turned out to be 2.2 and the EC50 came out at 3.3 µM. `COc1cc(-c2cn3cc(Br)c(C)c(C)c3n2)ccc1OCc1ccc(Cl)cc1` [Example 70] yielded a melting point of 166 to 167 °C. The same measure, in the same setting: in the case of `COc1cc(-c2cn3cc(C(F)(F)F)ccc3n2)ccc1OCc1ccccc1` [Example 17] it was 172 to 173 °C.

Molecule `COc1cc(-c2cn3cccc(OC)c3n2)ccc1OCc1ccc(Cl)cc1` [Example 89] returned a melting point of 132 to 134 °C.

Turning to `COc1cc(-c2cn3cc(C)cc(Br)c3n2)ccc1OCc1ccc(C#N)cc1` [Example 65], the melting point is 175 to 176 °C.

(Values after patent US8895599B2, “Lipoprotein lipase-activating compositions comprising benzene derivates” (Otsuka Pharmaceutical Factory, Inc., priority 2008, dated 2014).)
